Laboratory results as given in US20050154042A1, “N-alkyl pyrroles as HMG-CoA reductase inhibitors” (priority 2003, published 2005).
Structures can show the parent of a compound that is named as a salt.

Row | SMILES | melting point
1 | CC(N)=CC(=O)CNC(=O)c1c(-c2ccccc2)c(-c2ccc(F)cc2)c(CC[C@@H](O)C[C@@H](O)CC(=O)[O-])n1C(C)C.[Na+] [Example 113, (3R,5R)-7-[5-(4-Amino-2-oxo-pent-3-enylcarbamoyl)-3-(4-fluoro-phenyl)-1-isopropyl-4-phenyl-1H-pyrrol-2-yl]-3,5-dihydroxy-heptanoic Acid, Sodium Salt] | 189 to 193 °C
2 | COc1cccc(CNC(=O)c2c(-c3ccc(F)cc3)c(-c3ccc(F)cc3)c(CC[C@@H](O)C[C@@H](O)CC(=O)[O-])n2C(C)C)c1.[Na+] [Example 110, (3R,5R)-7-[3,4-Bis-(4-fluoro-phenyl)-1-isopropyl-5-(3-methoxy-benzylcarbamoyl)-1H-pyrrol-2-yl]-3,5-dihydroxy-heptanoic Acid, Sodium Salt] | 207 to 209 °C
3 | CC(C)n1c(CC[C@@H](O)C[C@@H](O)CC(=O)[O-])c(-c2ccc(F)cc2)c(-c2ccccc2)c1C(=O)Nc1ccc(S(N)(=O)=O)cc1.[Na+] [Example 4, (3R,5R)-7-[3-(4-Fluoro-phenyl)-1-isopropyl-4-phenyl-5-(4-sulfamoyl-phenylcarbamoyl)-1H-pyrrol-2-yl]-3,5-dihydroxy-heptanoic Acid Sodium Salt] | 265 to 267 °C
4 | CCc1cccc(NC(=O)c2c(-c3ccc(F)cc3)c(-c3ccc(F)cc3)c(CC[C@@H](O)C[C@@H](O)CC(=O)[O-])n2C(C)C)c1.[Na+] [Example 140, (3R,5R)-7-[5-(3-Ethyl-phenylcarbamoyl)-3,4-bis-(4-fluoro-phenyl)-1-isopropyl-1H-pyrrol-2-yl]-3,5-dihydroxy-heptanoic Acid Sodium Salt] | 175 to 177 °C
5 | CC(C)n1c(CC[C@@H](O)C[C@@H](O)CC(=O)[O-])c(-c2ccc(F)cc2)c(-c2ccccc2)c1C(=O)Nc1ccccn1.[Na+] [Example 119, (3R,5R)-7-[3-(4-Fluoro-phenyl)-1-isopropyl-4-phenyl-5-(pyridin-2-ylcarbamoyl)-1 H-pyrrol-2-yl]-3,5-dihydroxy-heptanoic Acid Sodium Salt] | 226 to 228 °C (dec.)
6 | CC(C)n1c(CCC(O)C[C@@H](O)CC(=O)[O-])c(-c2ccc(F)cc2)c(-c2ccccc2)c1C(=O)Nc1ccccc1.[Na+] (stereo partly drawn) [Example 3, (3R)-7-[3-(4-Fluoro-phenyl)-1-isopropyl-4-phenyl-5-phenylcarbamoyl-1H-pyrrol-2-yl]-3,5-dihydroxy-heptanoic Acid Sodium Salt] | 240 to 242 °C
7 | CC(C)n1c(CC[C@@H](O)C[C@@H](O)CC(=O)[O-])c(-c2ccc(F)cc2)c(-c2ccc(F)cc2)c1C(=O)Nc1ccc(OCc2ccccc2)cc1.[Na+] [Example 127] | 215 to 217 °C
8 | CC(C)n1c(/C=C/[C@@H](O)C[C@@H](O)CC(=O)[O-])c(-c2ccc(F)cc2)c(-c2ccccc2)c1C(=O)NCc1ccc(C#N)cc1.[Na+] [Example 145, (3R,5S)-7-[5-(4-Cyano-benzylcarbamoyl)-3-(4-fluoro-phenyl)-1-isopropyl-4-phenyl-1H-pyrrol-2-yl]-3,5-dihydroxy-hept-6-enoic Acid Sodium Salt] | 193 to 195 °C
9 | COc1ccc([C@@H](C)NC(=O)c2c(-c3ccc(F)cc3)c(-c3ccc(F)cc3)c(/C=C/[C@@H](O)C[C@@H](O)CC(=O)[O-])n2C(C)C)cc1.[Na+] [Example 155, (3R,5S)-7-{3,4-Bis-(4-fluoro-phenyl)-1-isopropyl-5-[(R)-1-(4-methoxy-phenyl)-ethylcarbamoyl]-1H-pyrrol-2-yl)-3,5-dihydroxy-hept-6-enoic Acid Sodium Salt] | 255 to 257 °C
10 | CC(C)n1c(/C=C/[C@@H](O)C[C@@H](O)CC(=O)O)c(-c2ccc(F)cc2)c(-c2ccc(F)cc2)c1C(=O)Nc1ccc(CC(N)=O)cc1 (as salt: sodium) [Example 14, (3R,5S)-7-[5-(4-Carbamoylmethyl-phenylcarbamoyl)-3,4-bis-(4-fluoro-phenyl)-1-isopropyl-1H-pyrrol-2-yl]-3,5-dihydroxy-hept-6-enoic Acid Sodium Salt] | 220 to 222 °C
11 | CC(C)n1c(CC[C@@H](O)C[C@@H](O)CC(=O)[O-])c(-c2ccc(F)cc2)c(-c2ccc(F)cc2)c1C(=O)Nc1cccc(Cl)c1.[Na+] [Example 138, (3R,5R)-7-[5-(3-Chloro-phenylcarbamoyl)-3,4-bis-(4-fluoro-phenyl)-1-isopropyl-1H-pyrrol-2-yl]-3,5-dihydroxy-heptanoic Acid Sodium Salt] | 191 to 194 °C
12 | CC(C)n1c(/C=C/[C@@H](O)C[C@@H](O)CC(=O)O)c(-c2ccc(F)cc2)c(-c2ccccc2)c1C(=O)NCc1ccc(F)cc1 (as salt: sodium) [Example 10, (3R,5S)-7-[5-(4-Fluoro-benzylcarbamoyl)-3-(4-fluoro-phenyl)-1-isopropyl-4-phenyl-1H-pyrrol-2-yl]-3,5-dihydroxy-hept-6-enoic Acid Sodium Salt] | 221 to 223 °C
13 | COC(=O)c1ccc(NC(=O)c2c(-c3ccc(F)cc3)c(-c3ccc(F)cc3)c(CC[C@@H](O)C[C@@H](O)CC(=O)[O-])n2C(C)C)nc1.[Na+] [Example 121, (3R,5R)-6-{[5-(6-Carboxy-3,5-dihydroxy-hexyl)-3,4-bis-(4-fluoro-phenyl)-1-isopropyl-1H-pyrrole-2-carbonyl]-amino}-nicotinic Acid Methyl Ester Sodium Salt] | 178 to 181 °C (dec.)
14 | Cc1cc(CNC(=O)c2c(-c3ccccc3)c(-c3ccc(F)cc3)c(/C=C/[C@@H](O)C[C@@H](O)CC(=O)[O-])n2C(C)C)no1.[Na+] [Example 79, trans-(3R,5 S)-7-{3-(4-fluoro-phenyl)-1-isopropyl-5-[(5-methyl-isoxazole-3-yl Methyl)-carbamoyl]-4-phenyl-1H-pyrrol-2-yl}-3,5-dihydroxy-hept-6-enoate Sodium Salt] | 200 to 203 °C
15 | CC(C)n1c(CC[C@@H](O)C[C@@H](O)CC(=O)O)c(-c2ccc(F)cc2)c(-c2ccccc2)c1C(=O)NCc1cn2c(n1)CCCC2 (as salt: sodium) [Example 93, (3R,5R)-7-[3-(4-Fluorophenyl)-1-isopropyl-5-[(5,6,7,8-tetrahydro-imidazo[1,2-a]pyridin-2-yl Methyl)carbamoyl]-4-phenyl-1H-pyrrol-2-yl]-3,5-dihydroxyheptanoic Acid Sodium Salt] | 239 to 241 °C (dec.)
16 | Cc1c[nH]c(CNC(=O)c2c(-c3ccccc3)c(-c3ccc(F)cc3)c(CC[C@@H](O)C[C@@H](O)CC(=O)O)n2C(C)C)n1 (as salt: sodium) [Example 95] | 213 to 215 °C (dec.)
17 | CC(C)n1c(CC[C@@H](O)C[C@@H](O)CC(=O)[O-])c(-c2ccc(F)cc2)c(-c2ccc(F)cc2)c1C(=O)NCc1ccccn1.[Na+] [Example 69, (3R,5R)-7-{3,4-bis-(4-fluoro-phenyl)-1-isopropyl-5-[(pyridin-2-ylmethyl)-carbamoyl]-1H-pyrrol-2-yl}-3,5-dihydroxy-heptanoate Sodium Salt] | 200 to 205 °C
18 | CC(C)n1c(/C=C/[C@@H](O)C[C@@H](O)CC(=O)O)c(-c2ccc(F)cc2)c(-c2ccccc2)c1C(=O)Nc1ccc(S(N)(=O)=O)cc1 (as salt: sodium) [Example 5, (3R,5S)-7-[3-(4-Fluoro-phenyl)-1-isopropyl-4-phenyl-5-(4-sulfamoyl-phenylcarbamoyl)-1H-pyrrol-2-yl]-3,5-dihydroxy-hept-6-enoic Acid Sodium Salt] | 255 to 256 °C
19 | CC(C)n1c(/C=C/[C@@H](O)C[C@@H](O)CC(=O)[O-])c(-c2ccc(F)cc2)c(-c2ccc(F)cc2)c1C(=O)Nc1ccccc1OCc1ccccc1.[Na+] [Example 131, (3R,5S)-7-[5-(2-Benzyloxy-phenylcarbamoyl)-3,4-bis-(4-fluoro-phenyl)-1-isopropyl-1H-pyrrol-2-yl]-3,5-dihydroxy-hept-6-enoic Acid Sodium Salt] | 228 to 229 °C
20 | COC(=O)C[C@H]1C[C@@H](CCc2c(-c3ccc(F)cc3)c(-c3ccc(F)cc3)cn2C(C)C)OC(C)(C)O1 [Example 24, (4R,6R)-(6-{2-[3,4-Bis-(4-fluoro-phenyl)-1-isopropyl-1H-pyrrol-2-yl]-ethyl}-2,2-dimethyl-[1,3]dioxan-4-yl)-acetic Acid Methyl Ester] | 55 to 57 °C
21 | CC(C)n1c(/C=C/[C@@H](O)C[C@@H](O)CC(=O)[O-])c(-c2ccc(F)cc2)c(-c2ccc(F)cc2)c1C(=O)Nc1cccc(C(=O)N(C)C)c1.[Na+] [Example 68, trans-(3R,5S)-7-[5-(3-dimethylcarbamoyl-phenylcarbamoyl)-3,4-bis-(4-fluoro-phenyl)-1-isopropyl-1H-pyrrol-yl]-3,5-dihydroxy-hept-6-enoate Sodium Salt] | 210 to 214 °C
